Broadly, the inhibition is the drop in the measured response relative to a control, in per cent.

The values below come from US20030216427A1, “Amine derivatives for the treatment of apoptosis” (priority 2000, published 2003).

Test [1] has as its system Sympathetic neurons from superior cervical ganglia (SCG) of newborn rats. Put plainly: Sympathetic neuron culture and survival assay. Type of test: cell-based, rat. The following applies: compound at 10 μM; 24 hours after cell death induction by anti NGF antibody, MTT. How it is done: Cell death is induced at day 4 after plating by exposing the culture to medium containing 10 µg/ml of anti NGF antibody (Boehringer Mannheim Corp., Indianapolis, Ind.) and no NGF or arabinosine, in the presence or absence of amino derivatives according to formula I. 24 hours after cell death induction, determination of cell viability is performed by incubation of the culture for 1 hour, at 37° C. in 0.5 mg/ml of 3-(4,5-dimethyl-thiazol-2-yl)2,5 diphenyl tetrazolium bromide (MTT). After incubation in MTT cells are re-suspended in DMSO, transferred to a 96 MTT plate and cell viability is evaluated by measuring optical density at 590nm.

Test [2] deals with Bid-induced Bax activation. Kind of test: Release of cytochrome c triggered by Bid-induced Bax activation (mitochondria isolated from HeLa cells). Format: biochemical. The following applies: compound at a concentration of 5 μM, 10 nM recombinant Bid. As to the method:
Concerning the Bid-induced activation of Bax leading to mitochondrial Cytochrome C release, it is referred to the description of Martinou et al. in The Journal of Cell Biology, Vol. 144, No. 5, Mar. 8, 1999, pages 891-901 as well as Eskes, Desagher, Antonsson and Martinou in Molecular and Cellular Biology, February 2000, p. 929-935, Vol. 20, No. 3. Mitochondria isolated from HeLa cells are incubated for 15 min at 30° C. in 100 μl of KCl buffer in the presence or absence of 10 nM recombinant Bid. […] Following incubation, mitochondria were centrifuged for 5 min at 13000 g at 4° C. and the supernatant is collected for cytochrome c analysis. Cytochrome c is detected by Western blotting. The cytochrome c bands are scanned and quantified using a Bio-Rad (GS-700 Imaging Densitometer).

For another test, the system named is gerbils. Put plainly: Global ischemia in gerbils (in vivo). Details: species or system gerbil. The following applies: 30 mg/kg, 5 min carotid occlusion. How it is done: The ability of the amine compounds of formula I to protect cell death during a stroke event may be assessed using the following protocol:
Anesthesia: halothane or isoflurane (0.5-4%).
Sheaving of the gorge and incision of the skin.
The common carotid arteries (left and right) are freed from tissue.
Occlusion of the arteries using Bulldog microclamps during 5 min.
Disinfection of the surgery plan (Betadine®) and suture of the skin (Autoclip® or Michel's hooks).
Stabulation of the animals under heating lamp until awake.
Stabulation of the animals in the animalry in individual cages.
7 days after ischemia (Decapitation or overdose of pentobarbital).
Freezing of the brain in isopentane (−20° C.)
Slicing of the hippocampus using a cryo-microtome (20 μm).
Staining with cresyl violet and/or TUNEL method
Evaluation of the lesions (in CA1/CA2 subfields of the hippocampus)
Gerhard & Boast score modified or
Cell counting in the CA1/CA2
Microdissection of the cerebral structures
Parameters determined: DNA fragmentation, lactate, calcium penetration.
Analytical methods: ELISA, colorimetry, enzymology, radiometry.
Administration of the test article or the vehicle: 15 min after reperfusion (5-10 min after the recovery of the anesthesia).
50 animals : 5 groups of 10 (group A: control, groups B-D : test article at 3 doses and group E : reference compound (ketamine 3×120 mg/kg, ip or Orotic acid 3×300 mg/kg, ip).

Test [3] concerns male Wistar rats. Kind of test: Transient model of focal cerebral ischemia (transient middle cerebral artery occlusion). Type of test: in vivo, rat. As to conditions: dose of 1 mg/kg (i.v.). From the text:
The compounds of the present invention were also subjected to the transient model of focal cerebral ischemia. The method used was adapted from Nagasawa and Kogure, Stroke, 20, 1037, 1989 as well as Zea Longa, Weinstein, Carlon and Cummins, Stroke, 20, 84, 1989.

The subject of test [4] is male Wistar rats. Put plainly: Kainate-induced neuronal cell death in the rat hippocampus. Format: in vivo. As to conditions: dose of 30 mg/kg (i.v.). How it is done: The compounds of the present invention were also subjected to the model of kainate-induced neuronal cell death in the rat hippocampus. The method used was adapted from Gelowitz, Paterson, Pharmacol.Biochem.Behav., 62: 255-62 (1999), Magyar et al. Transm.Suppl., 52: 109-23 (1998) as well as Sperk et al, Brain Re., 338: 289-95 (1985). […] According to a preferred embodiment, the tested compounds display a protection rate of at least 25%, preferably of at least 40% at a dose of 30 mg/kg (i.v.)

In another test the target is T1, recombinant Bax (Homo sapiens, UniProt Q07812).
T1 construct: Bax-α lacking 20 amino acids at the COOH-terminus; GST (cleaved yes); His; made in house; host or cells: Escherichia coli
T1 sequence (Q07812 1-172 limits assumed): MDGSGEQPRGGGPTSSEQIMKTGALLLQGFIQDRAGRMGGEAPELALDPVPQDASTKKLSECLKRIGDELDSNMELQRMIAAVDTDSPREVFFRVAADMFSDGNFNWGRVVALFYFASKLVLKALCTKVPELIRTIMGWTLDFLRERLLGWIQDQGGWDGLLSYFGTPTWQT
Put plainly: In vitro assay for cytochrome c release (mouse liver mitochondria incubated with recombinant Bax). Format: biochemical. As to conditions: compound at a concentration of 10 μM, 200 nM recombinant Bax. From the text:
Hunan Bax-α lacking 20 amino acids at the COOH-terminus is expressed as a GST fusion protein or a His-tagged protein in Escherichia coli, and the protein is purified from the soluble cell fraction. In brief, the GST-Bax fusion protein is applied to a glutathione-Sepha-rose column, and Bax was released by cleavage with thrombin (0.6U/mL). Bax is subsequently purified on heparin-Sepharose, followed by fast protein liquid chromatography (FPLC) Mono Q. His-tagged Bax is purified on a Ni-nitriloacetic acid-agarose column followed by FPLC MonoQ:
Mitochondria are isolated from mouse liver cells by differential centrifugation Cells are broken with a dounce homogenizer and the suspension is centrifuged at 2,000 g in an Eppendorf centrifuge at 4° C. This procedure is repeated until almost all the cells are broken. Supernatants from each step are pooled before centrifugation at 13,000 g at 4° C. for 10 min. […]
Mitochondria (30 μg) from mouse liver are incubated with 200 nM recombinant Bax in the presence of various compounds (5 μM) in 200 μL of KCl buffer for 20 min at 30° C. and are then centrifuged for 4 min at 13,000 g at 4° C. […] Antigen-antibody complexes are detected using horseradish peroxidase-conjugated goat anti-rabbit IgG and enhance chemi-luminescence detection reagents. The cytochrome c bands are scanned and quantified using a Bio-Rad (GS-700 Imaging Densitometer).

Turning to `CCCCCCCCCCCCC(=O)N1CCCC[C@@H]1C(=O)NCCCCCCN` [Example 2, (R)-N-(6-aminohexyl)-1-tridecanoylpiperidine-2-carboxamide], the neuronal survival rate entry in test [1] is recorded as “about 41%”.
As for `CCCCCCCCCCCCC(=O)N(C)[C@H](C(=O)NCCCCCCN)C(C)C` [Example 22, (S)-N-(1-{[(6-aminohexyl)amino]carbonyl)-2-methylpropyl)-N-methyltridecanamide], the “inhibition of the cytochrome c release” value in test [2] is given as “about 95%”.
Take `CCCCCCCCCCCCC(=O)N1CCCC[C@H]1C(=O)NCCCCCCN` [Example 1, (S)-1-Tridecanoyl-piperidine-2-carboxylic acid (6-amino-hexyl)-amide]: the “protection rate of cell survival” value with gerbils is given as “about 45%”. For the same molecule, in the test with male Wistar rats [3], the “decrease in the cortex infarct volume” value is “about 56%”. Further, the protection rate result in the test on male Wistar rats [4] is listed as “about 50%”.
In the case of `CCCCCCCCCCCCC(=O)N1CCC[C@H]1C(=O)NCCCCCCN` [Example 7, (S)-N-(6-aminohexyl)-1-tridecanoylpyrrolidine-2-carboxamide], at recombinant Bax, the inhibition at 10 µM was roughly 88%.
Take `CCCCCCCCCCCCC(=O)N1CCC[C@@H]1C(=O)NCCCCCN` [Example 139, (R)-N-(5-aminopentyl)-1-tridecanoylpyrrolidine-2-carboxamide]: the “protection rate of cell survival” value in the test on gerbils was roughly 55%.
